Results reported in PubChem BioAssay AID328 (DTP/NCI, 2004).
Values joined by “and” are separate entries in the source; they are usually repeats but may differ in a detail not shown here. Equal values may be shown once. Toxic doses and inconclusive results are not listed.

Tested on: BDF1 mice, P388 leukemia ip, median survival T/C
Assay: NCI In Vivo Anticancer Drug Screen. Data for tumor model P388 Leukemia (intraperitoneal) in B6D2F1 (BDF1) mice
Details: endpoint: median survival time, higher = longer survival
Summary of the method: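 Vehicle-dosed animals serve as the reference; survival of compound-dosed, tumour-implanted mice is divided by it.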

[1] = dose: 25.0 mg/kg/injection, schedule: Q04DX003 (ip), vehicle: Klucel (hydroxypropylcellulose) (HPC)
[2] = dose: 50.0 mg/kg/injection, schedule: Q04DX003 (ip), vehicle: Klucel (hydroxypropylcellulose) (HPC)
[3] = dose: 100.0 mg/kg/injection, schedule: Q04DX003 (ip), vehicle: Klucel (hydroxypropylcellulose) (HPC)
[4] = dose: 50.0 mg/kg/injection, schedule: Q01DX009 (ip), vehicle: Klucel (hydroxypropylcellulose) (HPC)
[5] = dose: 100.0 mg/kg/injection, schedule: Q01DX009 (ip), vehicle: Klucel (hydroxypropylcellulose) (HPC)
[6] = dose: 25.0 mg/kg/injection, schedule: Q01DX009 (ip), vehicle: saline
[7] = dose: 100.0 mg/kg/injection, schedule: Q01DX009 (ip), vehicle: saline
[8] = dose: 100.0 mg/kg/injection, schedule: Q04DX003 (ip), vehicle: saline
[9] = dose: 200.0 mg/kg/injection, schedule: Q04DX003 (ip), vehicle: saline
[10] = dose: 400.0 mg/kg/injection, schedule: Q04DX003 (ip), vehicle: saline
[11] = dose: 200.0 mg/kg/injection, schedule: Q04DX003 (ip), vehicle: Klucel (hydroxypropylcellulose) (HPC)
[12] = dose: 400.0 mg/kg/injection, schedule: Q04DX003 (ip), vehicle: Klucel (hydroxypropylcellulose) (HPC)
[13] = dose: 100.0 mg/kg/injection, schedule: Q04DX003 (ip), vehicle: saline with Tween-80
[14] = dose: 100.0 mg/kg/injection, schedule: Q01DX009 (ip), vehicle: saline with Tween-80
[15] = dose: 200.0 mg/kg/injection, schedule: Q01DX009 (ip), vehicle: Klucel (hydroxypropylcellulose) (HPC)
[16] = dose: 50.0 mg/kg/injection, schedule: Q01DX009 (ip), vehicle: saline with Tween-80
[17] = dose: 200.0 mg/kg/injection, schedule: Q01DX009 (ip), vehicle: saline with Tween-80

## CCCCCCCCCC(O)CCCCCCCCC
dose: 100.0 mg/kg/injection, schedule: Q01DX009 (ip), vehicle: other
  T/C: 100 % of control
dose: 200.0 mg/kg/injection, schedule: Q01DX009 (ip), vehicle: other
  T/C: 95 % of control
dose: 400.0 mg/kg/injection, schedule: Q01DX009 (ip), vehicle: other
  T/C: 110 % of control

## CC(=O)OCC(=O)[C@@]1(O)CC[C@H]2[C@@H]3CCC4=CC(=O)CC[C@]4(C)[C@@]3(F)[C@@H](O)C[C@@]21C
dose: 50.0 mg/kg/injection, schedule: Q01DX009 (sc), vehicle: steriod suspending solution
  T/C: 104 % of control
dose: 100.0 mg/kg/injection, schedule: Q01DX009 (sc), vehicle: steriod suspending solution
  T/C: 104 % of control
dose: 100.0 mg/kg/injection, schedule: Q04DX003 (sc), vehicle: steriod suspending solution
  T/C: 115 % of control
dose: 200.0 mg/kg/injection, schedule: Q04DX003 (sc), vehicle: steriod suspending solution
  T/C: 115 % of control

## Cc1ncc(CO)c(C2NOCc3ccc(Cl)cc32)c1O (stereo not drawn)
dose: 12.5 mg/kg/injection, schedule: Q01DX009 (ip), vehicle: Klucel (hydroxypropylcellulose) (HPC)
  T/C: 104 % of control
dose: 25.0 mg/kg/injection, schedule: Q01DX009 (ip), vehicle: Klucel (hydroxypropylcellulose) (HPC)
  T/C: 86 % of control
[1]
  T/C: 111 % of control
[2]
  T/C: 105 % of control
[3]
  T/C: 122 % of control

## Nc1nc(SSc2nc(N)nc3c2ncn3C2CC(O)C(CO)O2)c2ncn(C3CC(O)C(CO)O3)c2n1 (stereo not drawn)
[4]
  T/C: 150 % of control
[5]
  T/C: 100 % of control

## O/N=c1/cc(-c2ccc(Cl)cc2)ss1
[6]
  T/C: 114 % of control
dose: 50.0 mg/kg/injection, schedule: Q04DX003 (ip), vehicle: saline
  T/C: 100 % of control and 113 % of control
[7]
  T/C: 106 % of control
[8]
  T/C: 93 % of control and 106 % of control and 110 % of control
dose: 200.0 mg/kg/injection, schedule: Q01DX009 (ip), vehicle: saline
  T/C: 92 % of control
[9]
  T/C: 96 % of control and 102 % of control
dose: 400.0 mg/kg/injection, schedule: Q01DX009 (ip), vehicle: saline
  T/C: 96 % of control
[10]
  T/C: 102 % of control
dose: 600.0 mg/kg/injection, schedule: Q04DX003 (ip), vehicle: saline
  T/C: 90 % of control

## COc1cc2c(cc1OC)C(=O)CN(S(=O)(=O)c1ccc(C)cc1)CC2
[6]
  T/C: 95 % of control
dose: 50.0 mg/kg/injection, schedule: Q01DX009 (ip), vehicle: saline
  T/C: 104 % of control
[7]
  T/C: 104 % of control
[3]
  T/C: 100 % of control
[11]
  T/C: 95 % of control
[12]
  T/C: 95 % of control

## CO[C@H]1C[C@H](O[C@H]2CC[C@]3(C=O)[C@H]4CC[C@]5(C)[C@@H](C6=CC(=O)OC6)CC[C@]5(O)[C@@H]4CC[C@]3(O)C2)O[C@H](C)[C@H]1O[C@@H]1O[C@H](CO)[C@@H](O)[C@H](O)[C@H]1O
dose: 0.25 mg/kg/injection, schedule: Q01DX009 (ip), vehicle: saline
  T/C: 104 % of control
dose: 0.25 mg/kg/injection, schedule: Q04DX003 (ip), vehicle: saline
  T/C: 91 % of control
dose: 0.5 mg/kg/injection, schedule: Q01DX009 (ip), vehicle: saline
  T/C: 100 % of control
dose: 0.5 mg/kg/injection, schedule: Q04DX003 (ip), vehicle: saline
  T/C: 104 % of control
dose: 1.0 mg/kg/injection, schedule: Q01DX009 (ip), vehicle: saline
  T/C: 90 % of control
dose: 1.0 mg/kg/injection, schedule: Q01DX010 (ip), vehicle: saline
  T/C: 95 % of control
dose: 1.0 mg/kg/injection, schedule: Q04DX003 (ip), vehicle: saline
  T/C: 100 % of control
dose: 2.0 mg/kg/injection, schedule: Q04DX003 (ip), vehicle: saline
  T/C: 100 % of control

## Cc1ccc(NC(=O)c2ccccc2Cl)c(C)c1
[13]
  T/C: 100 % of control
dose: 200.0 mg/kg/injection, schedule: Q04DX003 (ip), vehicle: saline with Tween-80
  T/C: 100 % of control
dose: 400.0 mg/kg/injection, schedule: Q04DX003 (ip), vehicle: saline with Tween-80
  T/C: 109 % of control

## CN=S(=O)(OCCN(C)CCOS(=O)(=NC)c1ccc(C)cc1)c1ccc(C)cc1 (stereo not drawn)
dose: 50.0 mg/kg/injection, schedule: Q01DX009 (ip), vehicle: saline + alcohol
  T/C: 112 % of control
dose: 100.0 mg/kg/injection, schedule: Q01DX009 (ip), vehicle: saline + alcohol
  T/C: 103 % of control
dose: 200.0 mg/kg/injection, schedule: Q01DX009 (ip), vehicle: saline + alcohol
  T/C: 116 % of control

## C(=C\c1cccnc1)/c1ccncc1
dose: 66.0 mg/kg/injection, schedule: Q01DX009 (ip), vehicle: Klucel (hydroxypropylcellulose) (HPC)
  T/C: 158 % of control
dose: 66.0 mg/kg/injection, schedule: Q01DX009 (ip), vehicle: saline with Tween-80
  T/C: 108 % of control
[5]
  T/C: 178 % of control
[14]
  T/C: 94 % of control
[3]
  T/C: 100 % of control
dose: 150.0 mg/kg/injection, schedule: Q01DX009 (ip), vehicle: Klucel (hydroxypropylcellulose) (HPC)
  T/C: 158 % of control
dose: 150.0 mg/kg/injection, schedule: Q01DX009 (ip), vehicle: saline with Tween-80
  T/C: 108 % of control
[11]
  T/C: 86 % of control

## Cc1ccc(Nc2nc(N)nc(N)c2N)cc1Cl
dose: 33.0 mg/kg/injection, schedule: Q01DX009 (ip), vehicle: saline with Tween-80
  T/C: 120 % of control

## C(=N\Nc1nc2ccccc2s1)/c1ccc(/C=N/Nc2nc3ccccc3s2)cc1
[5]
  T/C: 109 % of control
[3]
  T/C: 104 % of control
[15]
  T/C: 114 % of control
[11]
  T/C: 100 % of control
dose: 400.0 mg/kg/injection, schedule: Q01DX009 (ip), vehicle: Klucel (hydroxypropylcellulose) (HPC)
  T/C: 100 % of control
[12]
  T/C: 104 % of control

## O=C(NNC(=O)C12CC3CC(CC(C3)C1)C2)c1ccncc1
[16]
  T/C: 96 % of control
[14]
  T/C: 101 % of control
[17]
  T/C: 92 % of control

## N[C@@H](Cc1ccc(O)c(O)c1)C(=O)O
dose: 50.0 mg/kg/injection, schedule: Q01DX010 (ip), vehicle: saline
  T/C: 92 % of control
dose: 100.0 mg/kg/injection, schedule: Q01DX010 (ip), vehicle: saline
  T/C: 96 % of control
dose: 200.0 mg/kg/injection, schedule: Q01DX010 (ip), vehicle: saline
  T/C: 100 % of control
dose: 400.0 mg/kg/injection, schedule: Q01DX010 (ip), vehicle: saline
  T/C: 107 % of control

## CN(C)c1ccc(/C=C/c2ccnc3ccccc23)c(O)c1
[13]
  T/C: 113 % of control

## c1ccc(COc2ccccn2)cc1
[1]
  T/C: 90 % of control
[2]
  T/C: 95 % of control
[3]
  T/C: 90 % of control

## CN=S(=O)(OCCCCOS(=O)(=NC)c1ccccc1)c1ccccc1 (stereo not drawn)
dose: 12.5 mg/kg/injection, schedule: Q01DX009 (ip), vehicle: saline with Tween-80
  T/C: 116 % of control

## OC12C3CCCC1CCCC2CCC3 (stereo not drawn)
[3]
  T/C: 100 % of control and 108 % of control
dose: 100.0 mg/kg/injection, schedule: Q04DX003 (ip), vehicle: saline sonified
  T/C: 108 % of control
[11]
  T/C: 91 % of control and 100 % of control
dose: 200.0 mg/kg/injection, schedule: Q04DX003 (ip), vehicle: saline sonified
  T/C: 90 % of control and 108 % of control
[12]
  T/C: 100 % of control
dose: 400.0 mg/kg/injection, schedule: Q04DX003 (ip), vehicle: saline sonified
  T/C: 109 % of control and 108 % of control

## CC1=CC(=O)OC(C)(C)C1
[8]
  T/C: 100 % of control
[9]
  T/C: 100 % of control
[10]
  T/C: 100 % of control

## O=C1CNC(=O)c2cc(N=Cc3cc(Br)ccc3O)ccc2N1
[16]
  T/C: 99 % of control
[14]
  T/C: 89 % of control
[17]
  T/C: 100 % of control

## C(=C\CN(Cc1ccccc1)Cc1ccccc1)/CN(Cc1ccccc1)Cc1ccccc1
[4]
  T/C: 104 % of control
[5]
  T/C: 104 % of control
[15]
  T/C: 95 % of control

## C/C(=C/CC(=O)O)C(=O)O
dose: 12.5 mg/kg/injection, schedule: Q04DX003 (ip), vehicle: water
  T/C: 119 % of control
dose: 25.0 mg/kg/injection, schedule: Q04DX003 (ip), vehicle: water
  T/C: 97 % of control
dose: 50.0 mg/kg/injection, schedule: Q04DX003 (ip), vehicle: water
  T/C: 97 % of control
dose: 100.0 mg/kg/injection, schedule: Q04DX003 (ip), vehicle: water
  T/C: 103 % of control
dose: 200.0 mg/kg/injection, schedule: Q04DX003 (ip), vehicle: water
  T/C: 122 % of control

## c1ccc(-c2nnc3ncccn23)cc1
[16]
  T/C: 96 % of control
[14]
  T/C: 93 % of control
[17]
  T/C: 93 % of control
